Results: patent US4895589A, “Heterocyclic compounds” (Imperial Chemical Industries PLC, priority 1985, dated 1990)
Read-outs that look alike come from different tables or passages of the source.

Assays:
Apples = assay: Intermediate Retardant Test, apples; format: in vivo, Apples (Red Delicious); details: 672 h, ~28 days, read-out: Percentage Reduction in Height of Apples (Compared to formulation blank)
Procedure, shortened: (§1)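 Overall spray at 1000 ppm and 4000 ppm (1 and 4 kg ha^-1, 1000 l/ha), giving foliar plus root exposure; rice in flooded paddy pots, barley and apples in 4" pots. Height measured ~28 days after treatment (ligule for cereals, apex for apples), reported as % reduction versus formulation blank.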

Tomato = details: TO, 4000 ppm, 2-3 weeks
Spring Barley = assay: Intermediate Retardant Test, spring barley; format: in vivo, Spring Barley (Atem/kym); details: Hordeum vulgare, 672 h, ~28 days, read-out: Percentage Reduction in Height of Spring Barley (Compared to formulation blank)
Procedure, shortened: as §1

Rice [1] = assay: Intermediate Retardant Test, rice; format: in vivo, Rice (Ishikari); details: Oryza sativa, 672 h, ~28 days, read-out: Percentage Reduction in Height of Rice (Compared to formulation blank)
Procedure, shortened: as §1

Rice [2] = assay: Whole Plant Screen (2), rice; format: in vivo, Rice (Ishikari); details: RC, 4000 ppm, side-by-side, Table XIII
Procedure, shortened: (§2)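 Foliar spray at 4000 ppm (4 kg/ha in 1000 l/ha) by tracksprayer at the listed leaf stage. Plants grown in glasshouse at 25° C. day/22° C. night, 16° C./13° C. for wheat, 16 h photoperiod. Morphology visually assessed after 2-6 weeks against formulation blanks.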

Cynosurus cristatus = details: CC, 4000 ppm, 2-3 weeks
Wheat [3] = details: WW, 4000 ppm, 2-3 weeks
Apple = assay: Whole Plant Screen (2), apple; format: in vivo, Apple (Red Delicious); details: AP, 4000 ppm, side-by-side, Table XIII
Method: After 2-6 weeks in the glasshouse, depending on the time of year, the plants were visually assessed for morphological characteristics. Formulation blanks were used as controls to assess the plants.
Compound numbers 1, 5 and 7 (of the present invention) were tested against compounds A, B, C and D (compound Nos. 12, 2, 24 and 50 of Table 1 EP No. 0052424) on whole plant screen (2). The compounds were tested of plant growth regulator activity against five species and for various growth effects relevant to plant growth regulation. The structures are set out in FIG. 1.
The plant species used in this screen are presented in Table XII with the leaf stage at which they were sprayed Each chemical was applied at 4000 ppm (4 kg/ha in a 1000 l/ha field volume) using a tracksprayer and a SS8004E (Teejet) nozzle. […]

[4] = test system: plant species of Whole Plant Screen (1) or (2); assay: Across screen comparison: total retardation relative to paclobutrazol (Whole Plant Screens (1) and (2)); format: in vivo; details: compounds of Table I, Table X
Procedure, shortened: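 Compounds, each tested in Whole Plant Screen (1) or (2), are compared by summing retardation scores over all species tested. Each total is expressed as a percentage of the total retardation from paclobutrazol, the standard run in every test.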

Wheat [5] = assay: Whole Plant Screen (2), wheat; format: in vivo, Wheat (Timmo); details: WW, 4000 ppm, side-by-side, Table XIII
Procedure, shortened: as §2

Barley [6] = assay: Whole Plant Screen (2), barley; format: in vivo, Barley (Atem); details: BR, 4000 ppm, side-by-side, Table XIII
Soya = details: SY, 4000 ppm, 2-3 weeks
Barley [7] = details: BR, 4000 ppm, 2-3 weeks
Method: The compounds were tested for plant growth regulator activity against up to tweleve plant species for various growth effects relevant to plant growth regulation.
After spray, the plants were grown in a glasshouse with 25° C. day/22° C. night temperatures and supplementary lighting was supplied when necessary (from mercury vapour lamps), to provide a 16 hour photoperiod. The exception to this were the temperate cereals, wheat and barley, which were grown in 16° C. day 13° C. night temperatures
After 2-3 weeks in the glasshouse, depending on the time of year, the plants were visually assessed for morphological characteristics. Formulations blanks were used as controls to assess the Plants.

Structure (SMILES)	percent reduction in plant height vs formulation blank at 1000 ppm (Apples; side-by-side, Table XVII) [%]	percent reduction in plant height vs formulation blank at 4000 ppm (Apples; Table IX) [%]	percent reduction in plant height vs formulation blank at 4000 ppm (Apples; side-by-side, Table XVII) [%]	Retardation score (1-3) with greening (G), apical damage (A), tillering/side shooting (T) (Tomato)	height reduction vs blank at 1000 ppm (Spring Barley; Table VIII) [%]	height reduction vs blank at 1000 ppm (Spring Barley; side-by-side, Table XV) [%]	height reduction vs blank at 4000 ppm (Spring Barley; Table VIII) [%]	height reduction vs blank at 4000 ppm (Spring Barley; side-by-side, Table XV) [%]	Percent reduction in rice plant height vs formulation blank at 1000 ppm (Rice [1]; Table VII) [%]	Percent reduction in rice plant height vs formulation blank at 1000 ppm (Rice [1]; side-by-side, Table XVI) [%]	Percent reduction in rice plant height vs formulation blank at 4000 ppm (Rice [1]; Table VII) [%]	Percent reduction in rice plant height vs formulation blank at 4000 ppm (Rice [1]; side-by-side, Table XVI) [%]	G = Greening effect (Rice [2])	I = Interligular or internodal length reduction (Rice [2])	R = Retardation (Rice [2])	T = Tillering or side shooting (Rice [2])	Retardation score (1-3) with greening (G), apical damage (A), tillering/side shooting (T) (Cynosurus cristatus) [G]	Retardation score (1-3) with greening (G), apical damage (A), tillering/side shooting (T) (Wheat [3])	G = Greening effect (Apple)	Total Retardation expressed as a percentage of the total retardation caused by paclobutrazol [4]	other results
CCCCC#CC(O)(Cn1cncn1)C(C)(C)C (stereo not shown) [Compound 1, 2,2-dimethyl-3-hydroxy-3-(hex-1-yne-1-yl)-4-(1,2,4-triazol-1-yl)-butane]	0	51.6	41	2G	32.3	28	60.7	62	24.6	31	49.9	53	2 (31-60%)	3 (61-100%)	2 (31-60%)	3 (61-100%)	2	3T	1 (10-30%)	84.0 % of paclobutrazol	T = Tillering or side shooting (Wheat [5]): 1 (10-30%); G = Greening effect (Barley [6]): 1 (10-30%); T = Tillering or side shooting (Barley [6]): 1 (10-30%); Retardation score (1-3) with greening (G), apical damage (A), tillering/side shooting (T) (Soya): 1G; Retardation score (1-3) with greening (G), apical damage (A), tillering/side shooting (T) (Barley [7]): 3T
CC(C)CC#CC(O)(Cn1cncn1)C(C)(C)C (stereo not shown) [Compound 7, 2,2-dimethyl-3-hydroxy-3-(4-methyl-pent-1-yne-1-yl)-4-(1,2,4-triazol-1-yl)-butane]	30	31	60	2GT	33	20	75.4	51	11.1	27	26	53	1 (10-30%)	3 (61-100%)	2 (31-60%)	3 (61-100%)	2	3GT	1 (10-30%)	58.6 % of paclobutrazol	percent reduction in plant height vs formulation blank at 1000 ppm (Apples; Table IX): 15%; G = Greening effect (Wheat [5]): 1 (10-30%); T = Tillering or side shooting (Wheat [5]): 1 (10-30%); G = Greening effect (Barley [6]): 1 (10-30%); I = Interligular or internodal length reduction (Barley [6]): 3 (61-100%); Retardation score (1-3) with greening (G), apical damage (A), tillering/side shooting (T) (Soya): 3GAT; Retardation score (1-3) with greening (G), apical damage (A), tillering/side shooting (T) (Barley [7]): 2GT
